According to ChEMBL document CHEMBL3885861, “Open TG-GATES”:

Species: Rattus norvegicus
Experiment: Open TG-GATES - Regimen: Single
Type: toxicity, organism-based, Sprague-Dawley
Parameters: regimen Single, gender Male, age 6 weeks
Conditions: in vivo, po, route gavage; for APTT / Bas / Eos / Fbg / Hb / Ht / Lym / MCH / MCHC / MCV / Mono / Neu / PT / Plat / RBC / Ret / WBC: tissue Blood; for KIDNEY_L / KIDNEY_R / KIDNEY_TOTAL: tissue Kidney; for ALP / ALT / AST / CRE / Cl / DBIL / GLC / IP / K / LDH / Na / PL / RALB / TBIL / TC / TG / TP / gamma-GTP: tissue Plasma

## COc1cc2c(c(OC)c1OC)-c1ccc(OC)c(=O)cc1[C@@H](NC(C)=O)CC2 [COLCHICINE]
2 mg/kg, 3 h, dose level Low
  APTT: 16.6 s
  Bas: 0%
  Eos: 1%
  Fbg: 218.6 mg/dL
  Hb: 13.5 g/dL
  Ht: 40.7%
  Lym: 84.4%
  MCH: 21.9 pg
  MCHC: 33.2%
  MCV: 66.1 fL
  Mono: 6.2%
  Neu: 8.8%
  PT: 11.8 s
  Plat: 109.4 x10_4/uL
  RBC: 616.8 x10_4/ul
  Ret: 10.2%
  WBC: 106.7 x10_2/uL
  KIDNEY_L: 1 g
  KIDNEY_R: 1 g
  KIDNEY_TOTAL: 2 g
  ALP: 946.8 IU/L
  ALT: 41.6 IU/L
  AST: 84.4 IU/L
  CRE: 0.5 mg/dL
  Cl: 104 meq/L
  DBIL: 0.01 mg/dL
  GLC: 199.8 mg/dL
  IP: 9.3 mg/dL
  K: 4.7 meq/L
  LDH: 137.8 IU/L
  Na: 140.2 meq/L
  PL: 143.6 mg/dL
  RALB: 3.7 g/dL
  TBIL: 0.4 mg/dL
  TC: 80.6 mg/dL
  TG: 57.6 mg/dL
  TP: 5.5 g/dL
  gamma-GTP: 1.8 IU/L
2 mg/kg, 6 h, dose level Low
  TERMINAL_BW: 217.7 g
  APTT: 16.3 s
  Bas: 0%
  Eos: 1%
  Fbg: 218.8 mg/dL
  Hb: 13.4 g/dL
  Ht: 40.8%
  Lym: 81%
  MCH: 21.6 pg
  MCHC: 32.7%
  MCV: 65.9 fL
  Mono: 6.8%
  Neu: 11.2%
  PT: 11.9 s
  Plat: 109.8 x10_4/uL
  RBC: 620 x10_4/ul
  Ret: 9.8%
  WBC: 115.2 x10_2/uL
  KIDNEY_L: 0.9 g
  KIDNEY_R: 0.9 g
  KIDNEY_TOTAL: 1.9 g
  ALT: 40.8 IU/L
  AST: 81.8 IU/L
  CRE: 0.5 mg/dL
  Cl: 104.4 meq/L
  DBIL: 0.03 mg/dL
  GLC: 188.6 mg/dL
  IP: 9.8 mg/dL
  K: 4.7 meq/L
  LDH: 113.6 IU/L
  Na: 140.2 meq/L
  PL: 131.6 mg/dL
  RALB: 3.7 g/dL
  TBIL: 0.4 mg/dL
  TC: 73 mg/dL
  TG: 49.6 mg/dL
  TP: 5.5 g/dL
  gamma-GTP: 1.2 IU/L
2 mg/kg, 9 h, dose level Low
  TERMINAL_BW: 215.3 g
  APTT: 16.2 s
  Bas: 0%
  Eos: 0.8%
  Fbg: 212.4 mg/dL
  Hb: 12.9 g/dL
  Ht: 39%
  Lym: 72.2%
  MCH: 21.2 pg
  MCHC: 33.1%
  MCV: 64.1 fL
  Mono: 11.8%
  Neu: 15.6%
  PT: 11.7 s
  Plat: 114.1 x10_4/uL
  RBC: 609.6 x10_4/ul
  Ret: 9.8%
  WBC: 101.3 x10_2/uL
  KIDNEY_L: 1 g
  KIDNEY_R: 1 g
  KIDNEY_TOTAL: 2 g
  ALP: 888 IU/L
  ALT: 47.6 IU/L
  AST: 93.4 IU/L
  CRE: 0.5 mg/dL
  Cl: 105.2 meq/L
  DBIL: 0.072 mg/dL
  GLC: 189.2 mg/dL
  IP: 9.4 mg/dL
  K: 4.8 meq/L
  LDH: 115 IU/L
  Na: 137.4 meq/L
  PL: 130 mg/dL
  RALB: 3.7 g/dL
  TBIL: 0.4 mg/dL
  TC: 80.4 mg/dL
  TG: 36.2 mg/dL
  TP: 5.4 g/dL
  gamma-GTP: 1.4 IU/L
2 mg/kg, 24 h, dose level Low
  TERMINAL_BW: 231.9 g
  APTT: 17.8 s
  Bas: 0%
  Eos: 1%
  Fbg: 213 mg/dL
  Hb: 12.8 g/dL
  Ht: 38.5%
  Lym: 79.6%
  MCH: 22.1 pg
  MCHC: 33.3%
  MCV: 66.4 fL
  Mono: 7.6%
  Neu: 11.8%
  PT: 11.3 s
  Plat: 108 x10_4/uL
  RBC: 580.6 x10_4/ul
  Ret: 9.1%
  WBC: 127.4 x10_2/uL
  KIDNEY_L: 1.1 g
  KIDNEY_R: 1.1 g
  KIDNEY_TOTAL: 2.1 g
  ALP: 972.6 IU/L
  ALT: 37.2 IU/L
  AST: 69 IU/L
  CRE: 0.6 mg/dL
  Cl: 103.4 meq/L
  DBIL: 0.05 mg/dL
  GLC: 201.2 mg/dL
  IP: 6.6 mg/dL
  K: 4.4 meq/L
  LDH: 113 IU/L
  Na: 139 meq/L
  PL: 156.6 mg/dL
  RALB: 3.8 g/dL
  TBIL: 0.4 mg/dL
  TC: 83.6 mg/dL
  TG: 125.8 mg/dL
  TP: 5.7 g/dL
  gamma-GTP: 1 IU/L
5 mg/kg, 3 h, dose level Middle
  TERMINAL_BW: 224.6 g
